Experiments:
[1] = tested on: interferon regulatory factor (IRF) pathway in THP1-Dual cells; experiment: In vitro H-151 inhibition of DNA-LNP-induced IRF activation (Lucia luciferase in THP1-Dual cell supernatant); type: cell-based; conditions: 25 ng DNA-LNP/well, 24 hours, FIG. 1
Protocol: THP1-Dual™ cells (InvivoGen) were seeded in 96-well plates at a density of 45,000 cells/well. After overnight incubation, the cells were treated with 25 ng DNA-LNP/well in the presence of 0, 0.2 or 2.1 ng of small molecule STING inhibitor H-151 (InvivoGen), where the H-151 was provided either a) co-encapsulated with the DNA in the LNPs, or b) provided in a soluble form. After 24 hours incubation, activation of the interferon regulatory factor (IRF) pathway (“fold IRF activity”) was determined by measuring luminescence signal (Lucia luciferase) in the cell culture supernatant. The DNA-LNP was made up of (1) DNA plasmid (nanoplasmid expression cassette encoding human coagulation Factor IX (hFIX)) and (2) Lipid 5 (further described in Sabnis et al. and I.A. infra.), 50%; C14-PEG2000, 1.5%; cholesterol, 38.5%; and DSPC, 10%.

[2] = tested on: DNA-LNP-induced plasma cytokines; experiment: In vivo LNP-encapsulated H-151 inhibition of DNA-LNP-induced cytokine release; design: species or system BALB/c mice; conditions: H-151 encapsulated in 10 μg DNA-LNP, about 1-2 μg/mouse, 4 hours post injection
Protocol: BALB/c mice were injected with 10 μg DNA-LNP or 10 μg DNA-LNP encapsulating H-151. H-151 was provided at a dose of about 1-2 μg/mouse (about 0.04-0.08 mg/kg mouse) Cytokine levels in plasma were measured at 4 hours post injection. FIGS. 2A, 2B, 2C, and 2D illustrate the ability of H-151 encapsulated with the DNA-LNP to inhibit DNA-induced IFN-β (FIG. 2A), IFN-α (FIG. 2B), IFN-γ (FIG. 2C) and IL-6 (FIG. 2D). The DNA-LNP was as described in Example 1, above.

[3] = tested on: DNA-LNP-induced plasma cytokine/chemokine levels; experiment: In vivo RO3150 and GSK690693 inhibition of DNA-LNP-induced cytokine release; design: species or system BALB/c mice; conditions: pre-treatment before DNA-LNP: dexamethasone 200 μg IP, GSK690693 312.5 μg IP (about one hour prior), RO3150 60 μg IV (right before); plasma at 4 hours; FIGS. 3A-3H
Protocol: BALB/c mice were pre-treated with dexamethasone, GSK690693, or RO3150 before DNA-LNP administration, and plasma cytokine levels were measured at 4 hours post DNA-LNP treatment. The DNA-LNP was made up of (1) DNA plasmid (nanoplasmid expression cassette encoding hFIX); and (2) GenVoy-ILM™ LNP. GenVoy-ILM™ LNP contains ionizable lipid at 50%; DSPC at 10%; cholesterol 37.5%; and stabilizer (PEG-Lipid) at 2.5% (see Roces et al., Pharmaceutics, 2020 12, 1095). Pretreatment was carried out using 200 μg dexamethasone administered intraperitoneally about one hour prior to DNA-LNP administration; using 312.5 μg GSK69063 administered intraperitoneally about one hour prior to DNA-LNP administration; or using 60 μg […] administered intravenously right before DNA-LNP administration.

SMILES: CCc1ccc(NC(=O)Nc2c[nH]c3ccccc23)cc1 [H-151]
- effect on LNP-DNA-induced IRF activation (fold IRF activity), compared with soluble H-151 ([1]; H-151 co-encapsulated with the DNA in the LNP, 0.2 or 2.1 ng/well): more pronounced
- effect on LNP-DNA-induced IRF activation (fold IRF activity) ([1]; soluble H-151, 0.2 or 2.1 ng/well): had an inhibitory effect
- DNA-induced IFN-β in plasma ([2]; FIG. 2A): inhibit
- DNA-induced IFN-α in plasma ([2]; FIG. 2B): inhibit
- DNA-induced IFN-γ in plasma ([2]; FIG. 2C): inhibit
- DNA-induced IL-6 in plasma ([2]; FIG. 2D): inhibit

SMILES: CCn1c(-c2nonc2N)nc2c(C#CC(C)(C)O)ncc(OC[C@H]3CCCNC3)c21 [GSK690693]
- cytokine/chemokine levels induced by DNA-LNP [3]: reduced most cytokine/chemokine levels except IL-6 and KC/GRO
